Legend:
[1] = biological target: α-chymotrypsin from bovine pancreas (Bos taurus, UniProt P00766); test: chymotrypsin inhibition assay; assay type: biochemical; design: key to Enzyme Inhibition Chymotrypsin (activity class): - not active; */** small/medium activity; */** small/medium activity
[2] = biological target: T1, trypsin from porcine pancreas (Sus scrofa, UniProt P00761); test: trypsin inhibition assay; assay type: biochemical; design: key: - not active; */** small/medium activity; */** small/medium activity; conditions: class symbols
T1 construct: purchased Sigma-Aldrich T0303; host or cells: porcine pancreas

[3] = biological target: T2, elastase from porcine pancreas (Sus scrofa, UniProt P00772); test: elastase inhibition assay; assay type: biochemical; design: key: - not active; */** small/medium activity; */** small/medium activity; conditions: highest concentration 45.4 μg/mL
T2 construct: purchased Sigma-Aldrich E0258; host or cells: porcine pancreas

Thrombin [4] = biological target: T3, Thrombin (Bos taurus, UniProt P00735); test: thrombin inhibition assay; assay type: biochemical; design: key: - not active; */** small/medium activity; */** small/medium activity; conditions: highest concentration 45.4 μg/mL
T3 construct: purchased Sigma-Aldrich T4648

[5] = biological target: T4, protein phosphatase 1 (PP1) (Oryctolagus cuniculus, UniProt P62139); test: protein phosphatase 1 inhibition assay; assay type: biochemical; design: key: - not active; */** small/medium activity; */** small/medium activity; conditions: highest concentration 45.4 μg/mL
T4 construct: purchased England Biolabs, Hitchin, UK (New England Biolabs) 754S

[6] = system: MCF-7 breast cancer cells; test: MTT cytotoxicity assay; assay type: cell-based; conditions: 24-h exposure, 0 to 500 μg/mL
Protocol: For the test, two CPs were selected: Arg^2-containing CP962 and Tyr^2-containing CP985. MCF-7 breast cancer cells were seeded at 7.5 × 10^3 cells/100 μL in a 96-well plates and incubated at 37 °C, 5% CO2 for 24 h. The cells were then treated for a further 24 h with CP962 and CP985 (0 to 500 μg/mL). After 24 h, sterile-filtered 3-(4,5-dimethylthiazol-2-yl)-2,5-diphenyltetrazolium bromide solution (MTT; 1 mg/mL) was added to each well. After 4 h incubation at 37 °C in the dark, the MTT solution was removed and formazan crystals solubilized in DMSO. The plates were shaken for 20 min, in the dark, at room temperature and absorbance was measured at 560 nm (Synergy/HT, BIOTEK, Wnooski, VT, USA). For each CP, three independent experiments were carried out and each treatment consisted of six replicates per plate. Bar charts were used to represent the viability of MCF-7 cells treated with CP962 and CP985, compared to the control (i.e., untreated cells) that represented 100% cell viability.

Chymotrypsin = conditions: cited from earlier work
trypsin = conditions: cited from earlier work
[7] = system: NCI H460 lung cancer cells; design: method as in PMID 18163584; conditions: cited from earlier work
[8] = system: neuro-2A neuroblastoma cells; design: method as in PMID 18163584; conditions: cited from earlier work
small crustaceans = system: small crustaceans; design: method as in doi:10.2216/i0031-8884-35-6S-111.1, PMID 20405925, PMID 12662108; conditions: cited from earlier work
mice = conditions: cited from earlier work
Elastase = biological target: Elastase; design: method as in doi:10.1021/np960649a; conditions: cited from earlier work
plasmin = conditions: cited from earlier work
papain = system: papain; design: method as in doi:10.1021/np960649a; conditions: cited from earlier work
Thrombin [9] = biological target: T3, Thrombin; design: method as in doi:10.1021/np960649a; conditions: cited from earlier work
[10] = system: human hepatoma cell line Huh7; design: method as in PMID 27428998; conditions: cited from earlier work
[11] = system: zebrafish eleuthero-embryos; design: method as in PMID 24561424; conditions: genes of DNA damage recognition and repair, circadian rhythm; cited from earlier work
PP1 = conditions: cited from earlier work
isolated rat hepatocytes = system: isolated rat hepatocytes; design: method as in doi:10.2216/i0031-8884-35-6S-111.1; conditions: cited from earlier work
Daphnia magna = conditions: compared with microcystin-LR; cited from earlier work
human kallikrein = system: human kallikrein; design: method as in PMID 20405925; conditions: cited from earlier work
factor XIa = system: factor XIa; design: method as in PMID 20405925; conditions: cited from earlier work

T2 sequence (P00772 27-266): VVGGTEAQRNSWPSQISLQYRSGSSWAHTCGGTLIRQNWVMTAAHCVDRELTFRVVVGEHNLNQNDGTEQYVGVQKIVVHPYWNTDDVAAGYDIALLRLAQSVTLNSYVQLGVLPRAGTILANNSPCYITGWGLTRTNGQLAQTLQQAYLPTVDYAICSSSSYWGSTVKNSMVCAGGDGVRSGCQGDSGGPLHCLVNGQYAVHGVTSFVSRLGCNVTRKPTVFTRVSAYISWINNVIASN
T4 sequence (P62139 whole entry): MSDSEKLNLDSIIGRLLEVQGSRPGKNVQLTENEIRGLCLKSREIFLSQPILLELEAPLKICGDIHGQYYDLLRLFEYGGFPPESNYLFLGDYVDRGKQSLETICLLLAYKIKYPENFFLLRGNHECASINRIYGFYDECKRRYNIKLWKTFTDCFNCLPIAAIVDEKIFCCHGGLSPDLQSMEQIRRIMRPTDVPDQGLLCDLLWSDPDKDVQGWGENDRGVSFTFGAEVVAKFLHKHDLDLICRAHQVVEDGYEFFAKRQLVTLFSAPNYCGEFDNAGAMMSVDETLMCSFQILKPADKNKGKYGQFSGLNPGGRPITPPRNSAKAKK
T1 sequence (P00761 9-231): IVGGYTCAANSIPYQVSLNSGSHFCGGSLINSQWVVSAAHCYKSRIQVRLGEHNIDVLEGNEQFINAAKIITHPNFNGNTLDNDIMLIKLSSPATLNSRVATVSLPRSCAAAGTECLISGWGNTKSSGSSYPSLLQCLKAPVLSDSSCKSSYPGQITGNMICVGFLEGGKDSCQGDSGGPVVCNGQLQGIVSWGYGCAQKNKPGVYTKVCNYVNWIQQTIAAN

CCCC(=O)NC(CC(=O)O)C(=O)NC1C(=O)NC(CCCNC(=N)N)C(=O)NC2CCC(O)N(C2=O)C(Cc2ccccc2)C(=O)N(C)C(Cc2ccccc2)C(=O)NC(C(C)C)C(=O)OC1C (stereo not drawn) [CP 962, [Thr+Arg+Ahp+Phe+MePhe+Val]Asp+BA]
Enzyme Inhibition Chymotrypsin (activity class) ([1]; class symbols): -
Enzyme Inhibition Trypsin (activity class) [2]: **
Enzyme Inhibition Elastase (activity class) [3]: -
Enzyme Inhibition Thrombin (activity class) (Thrombin [4]): -
Enzyme Inhibition Protein Phosphatase 1 (activity class) [5]: -
cytotoxic effects on MCF-7 cells (MTT) [6]: no cytotoxic effects

CCCC(=O)N[C@@H](CCC(N)=O)C(=O)N[C@@H]1C(=O)N[C@@H](CCCNC(N)=O)C(=O)N[C@H]2CC[C@@H](O)N(C2=O)[C@@H]([C@@H](C)CC)C(=O)N(C)[C@@H](Cc2ccc(OC)c(Br)c2)C(=O)N[C@@H](C(C)C)C(=O)O[C@@H]1C [Symplocamide A]
IC50 (Chymotrypsin; read-out: chymotrypsin IC50): 0.38 µM
IC50 (trypsin): 80.2 µM
cytotoxic activity to NCI H460 lung cancer cells [7]: cytotoxic activity
cytotoxic activity to neuro-2A neuroblastoma cells [8]: cytotoxic activity

Oscillapeptin J
acute effects in small crustaceans (small crustaceans): induced acute effects
harmful effects in mice (mice; administered intraperitoneally at concentrations up to 1000 µg/kg b.w.): did not induce any harmful effects

CCCC(=O)N[C@@H](CCC(N)=O)C(=O)N1CC(C)C2OC(=O)[C@H]([C@@H](C)CC)NC(=O)[C@H](Cc3ccc(O)cc3)N(C)C(=O)[C@H]([C@@H](C)CC)N3C(=O)C(CCC3O)NC(=O)[C@H](CC(C)C)NC(=O)[C@H]21 (stereo partly drawn) [Nostopeptin A, [Hmp+Leu+Ahp+Ile+MeTyr+Ile]Gln+BA]
Enzyme Inhibition Chymotrypsin IC50 (Chymotrypsin): 1.4 µg/mL
Enzyme Inhibition Elastase IC50 (Elastase): 1.3 µg/mL
activity against trypsin (trypsin): inactive
activity against plasmin (plasmin): inactive
activity against papain (papain): inactive
activity against thrombin (Thrombin [9]): inactive

CCCCCC(=O)N[C@@H](CCC(=O)O)C(=O)N[C@@H]1C(=O)N[C@@H](CCCNC(=N)N)C(=O)N[C@H]2CC[C@@H](O)N(C2=O)[C@@H](Cc2ccccc2)C(=O)N(C)[C@@H](Cc2ccc(O)cc2)C(=O)N[C@@H](C(C)C)C(=O)O[C@@H]1C [CP1020, cyanopeptolin 1020]
anti-inflammatory effects in Huh7 [10]: induction of anti-inflammatory effects
transcriptional alterations of genes in zebrafish eleuthero-embryos [11]: led to transcriptional alterations of genes

CC[C@H](C)[C@H](NC(=O)[C@H](O)Cc1ccc(O)cc1)C(=O)N[C@@H](CCO)C(=O)N[C@@H]1C(=O)N[C@@H](CCO)C(=O)N[C@H]2CC[C@@H](O)N(C2=O)[C@@H](Cc2ccccc2)C(=O)N(C)[C@@H](Cc2ccc(O)cc2)C(=O)N[C@@H](C(C)C)C(=O)O[C@@H]1C [Nostocyclin, [Thr+Hse+Ahp+Phe+MeTyr+Val]Hse+Ile+Hpla]
activity against protein phosphatases (PP1; protein phosphatases): weak activity
IC50 (PP1; read-out: Enzyme Inhibition PP1 IC50): 64 µM
toxicity in mouse bioassay (mice): not toxic

CCCC(=O)NC(CC(=O)O)C(=O)NC1C(=O)NC(Cc2ccc(O)cc2)C(=O)NC2CCC(O)N(C2=O)C(Cc2ccccc2)C(=O)N(C)C(Cc2ccc(O)cc2)C(=O)NC(C(C)C)C(=O)OC1C (stereo not drawn) [CP 985, [Thr+Tyr+Ahp+Phe+MeTyr+Val]Asp+BA]
IC50 ([1]; read-out: Enzyme Inhibition (IC50 [µM]) Chymotrypsin): 0.26 µM
Enzyme Inhibition Trypsin (activity class) [2]: -
Enzyme Inhibition Elastase (activity class) [3]: -
Enzyme Inhibition Thrombin (activity class) (Thrombin [4]): -
Enzyme Inhibition Protein Phosphatase 1 (activity class) [5]: -
cytotoxic effects on MCF-7 cells (MTT) [6]: no cytotoxic effects

CC[C@H](C)[C@@H]1NC(=O)[C@H](Cc2ccccc2)N(C)C(=O)[C@H]([C@@H](C)CC)N2C(=O)[C@H](CC[C@H]2O)NC(=O)[C@H](CCCN=C(N)N)NC(=O)[C@@H](NC(=O)[C@@H](COS(=O)(=O)O)OS(=O)(=O)O)[C@@H](C)OC1=O [CP SS]
inhibition of plasmin (plasmin): inhibited plasmin
toxicity to isolated rat hepatocytes (isolated rat hepatocytes): not toxic
acute effects in small crustaceans (small crustaceans): induced acute effects
toxicity against Daphnia magna (Daphnia magna): even higher than for microcystin-LR

CC[C@H](C)[C@@H]1NC(=O)[C@H](Cc2ccc(O)cc2)N(C)C(=O)[C@H]([C@@H](C)CC)N2C(=O)C(CCC2O)NC(=O)[C@H](CC(C)C)NC(=O)[C@@H]2C(OC1=O)C(C)CN2C(=O)[C@H](CCC(N)=O)NC(C)=O (stereo partly drawn) [Nostopeptin B, [Hmp+Leu+Ahp+Ile+MeTyr+Ile]Gln+Ac]
Enzyme Inhibition Chymotrypsin IC50 (Chymotrypsin): 1.6 µg/mL
Enzyme Inhibition Elastase IC50 (Elastase): 11.0 µg/mL
activity against trypsin (trypsin): inactive
activity against plasmin (plasmin): inactive
activity against papain (papain): inactive
activity against thrombin (Thrombin [9]): inactive

CCCCCC(=O)N[C@@H](CC(=O)O)C(=O)N[C@@H]1C(=O)N[C@@H](CCCNC(=N)N)C(=O)N[C@H]2CC[C@@H](O)N(C2=O)[C@@H](Cc2ccccc2)C(=O)N(C)[C@@H](CCc2ccc(O)cc2)C(=O)N[C@@H](C(C)C)C(=O)O[C@@H]1C [CP 1020, [Thr+Arg+Ahp+Phe+MeHty+Val]Asp+HA]
Enzyme Inhibition Elastase (activity class) [3]: -
Enzyme Inhibition Thrombin (activity class) (Thrombin [4]): -
Enzyme Inhibition Protein Phosphatase 1 (activity class) [5]: -
activity against chymotrypsin (Chymotrypsin): active
inhibition of trypsin (trypsin): Picomolar inhibition
activity against plasmin (plasmin): active
activity against human kallikrein (human kallikrein): active
activity against factor XIa (factor XIa): active
acute effects in small crustaceans (small crustaceans): induced acute effects

Reference: article PMC6070996 (Marine Drugs, 2018)
